The record followed here is patent US9439843B2, “Oral care compositions” (Colgate-Palmolive Company, priority 2011, dated 2016).

Each structure is given as a SMILES string.

This data set is described as follows: Solubility of isobutyl magnolol (statement in words). It counts as physicochemical. Particulars: background statement.

Consider `CC(C)Cc1ccc(O)c(-c2cc(CC(C)C)ccc2O)c1` [isobutyl magnolol, 5,5′-di(2-methylpropyl)-biphenyl-2,2′-diol], for which the “solubility both in water and in oil” value is given as “extremely poor”.
